Consider four compounds from patent publication EP1075525B1, “DNA POLYMERASE FROM PYROBACULUM ISLANDICUM” (Roche Diagnostics GmbH, priority 1999, dated 2000).

The test system of the test is DNA polymerase of P. islandicum. Put plainly: Non-radioactive DNA polymerase activity assay: influence of inhibitors and ions. As to conditions: for DNA polymerase activity: pH 7.5, 0.5 mM MgCl2, 0 mM KCl, 0.5 U. In kind it is biochemical, Pyrobaculum islandicum.

As to `CCN1C(=O)C=CC1=O` [N-Ethylmaleimid], the DNA polymerase activity by setting is: (1 mM N-Ethylmaleimid, preincubation of enzyme at 90°C for 20 min, 75°C) 40%; (2 mM N-Ethylmaleimid, preincubation of enzyme at 90°C for 20 min, 75°C) 30%; (5 mM N-Ethylmaleimid, preincubation of enzyme at 90°C for 20 min, 75°C) 0%. For the same compound, the “DNA polymerase activity (in words)” value (after a preincubation with 5 mM NEM) is reported as “total loss of activity”.

Consider `Nc1nc2c(ncn2[C@H]2CC[C@@H](COP(=O)(O)OP(=O)(O)OP(=O)(O)O)O2)c(=O)[nH]1` [ddGTP], for which the DNA polymerase activity runs as follows: (ddGTP/dGTP = 5, 75°C) 95%; (ddGTP/dGTP = 20, 75°C) 53%. Where the note is “ddGTP/dGTP ratio of 2”, the “inhibition of DNA polymerase (in words)” value is given as “No inhibition”.

As for `C[C@@]1(CO)[C@H](O)CC[C@@]2(C)[C@H]1CC[C@H]1C[C@@H]3C[C@@]12CC[C@]3(O)CO` [Aphidicolin], the DNA polymerase activity is, setting by setting: (50 µM (17 µg/ml) aphidicolin, 75°C) 100%; (200 µM (68 µg/ml) aphidicolin, 75°C) 70%; (500 µM (170 µg/ml) aphidicolin, 75°C) 55%; (2000 µM (680 µg/ml) aphidicolin, 75°C) 21%.

By residual activity is commonly meant the share of the control activity or signal that is left under treatment. In the case of `[Cl-].[K+]` [KCl], the residual activity (in the presence of 100 mM KCl, 75°C, pH 7.3, 0.5 mM MgCl2) was determined as 7%.
